The first assay has as its system mice. Nature of the assay: Testing for analgesia using the tail flick test on mice. The class given is in vivo, NMRI mice. To be noted: Mus musculus, 20 min; NMRI mice, intravenous, 20 minutes after administration; Litchfield and Wilcoxon; read-out: ED50 (tail flick test, analgesia). The text has this:
Testing for analgesia using the tail flick test on mice
The analgesic effectiveness of the compounds according to the invention was investigated in the thermal radiation (tail flick) test on mice using the method of D'Amour and Smith (J. Pharm. Exp. Ther. 72, 74-79 (1941). […]. The animals were placed in a special test cage and the bases of their tails were exposed to the focused thermal radiation from an electric lamp (Rhema Analgesiemeter Type 3010). The lamp intensity was adjusted so that the time from switching on the lamp until the sudden twitching away of the tail (latency of pain) was 3-5 seconds for untreated animals. Before the administration of a compound according to the invention, the animals were pre-tested twice within five minutes and the average value of these measurements was calculated as the pre-test average. The pain measurement was made 20, 40 and 60 minutes after intravenous administration. […]. In order to determine the dosage-dependency, the respective compound according to the invention was applied in doses increasing logarithmically by a factor of 3-5, which included the threshold and the maximum effective dose each time. The ED50 values were determined from the number of analgesic animals by the method of Litchfield and Wilcoxon (J. Pharm. Exp. Ther. 96, 99-113, (1949)). Calculation of the ED50 was made at the effective maximum 20 minutes after intraveneous adminstration of the substance.
A general note: Thermal pain tests record how soon the animal reacts.
What is called ED50 is the dose that gives a 50% effect, or the effect in half of the subjects. With `CC(C)COC(=O)Oc1cccc([C@@H]2CCCC[C@@H]2CN(C)C)c1.Cl` [(-11), (-)-(1R,2S)-carbonic acid-[3-(2-dimethylaminomethyl-cyclohexyl)-phenyl]-ester-isobutyl ester hydrochloride], the ED50 was found to be 5.01 mg/kg.

On to `CC(=O)Oc1ccccc1C(=O)Oc1cccc([C@@H]2CCCC[C@@H]2CN(C)C)c1.Cl` [(-10), (-)-(1R,2S)-2-acetoxy-benzoic acid-3-(2-dimethylaminomethyl-cyclohexyl)-phenyl ester hydrochloride], for which the ED50 was determined as 8.71 mg/kg.

On to `CN(C)C[C@H]1CC[C@@H](O)C[C@]1(O)c1cccc(O)c1.Cl` [(+21), (+)-(1R,3R,6R)-6-dimethylaminomethyl-1-(3-hydroxy-phenyl)-cyclohexane-1,3-diol hydrochloride], for which the ED50 was 7.34 mg/kg.

Turning to `COc1cccc([C@@]2(O)C[C@H](O)CC[C@@H]2CN(C)C)c1.Cl` (racemic) [(17), (1RS,3RS,6RS)-6-dimethylaminomethyl-1-(3-methoxy-phenyl)-cyclohexane-1,3-diol hydrochloride], the ED50 came to 5.54 mg/kg.

For `COc1cccc([C@@H]2CCCC[C@@H]2CN(C)C)c1.Cl` [(+6), (+)-(1S,2R)-[2-(3-methoxy-phenyl)-cyclohexylmethyl]-dimethylamine hydrochloride], the ED50 was 10.7 mg/kg.

As for `CN(C)C[C@H]1CCCC[C@]1(Cl)c1cccc(O)c1.Cl` [(+5), (+)-(1R,2R)-3-(1-chloro-2-dimethylaminomethyl-cyclohexyl)-phenol hydrochloride], the ED50 was 2.78 mg/kg.

Consider `CN(C)C[C@H]1CCCC[C@H]1c1cccc(OC(=O)C(C)(C)C)c1.Cl` [(-8), (-)-(1R,2S)-2,2-dimethylpropionic acid-3-(2-dimethylaminomethyl-cyclohexyl)-phenyl ester hydrochloride], for which the 50% effective dose (ED50) came out at 4.61 mg/kg.

On to `CN(C)C[C@H]1CCCC[C@]1(F)c1cccc(O)c1.Cl` [(+1), (+)-(1R,2R)-3-(2-dimethylaminomethyl-1-fluoro-cyclohexyl)-phenol hydrochloride], for which the 50% effective dose (ED50) turned out to be 0.64 mg/kg.

Take `CN(C)C[C@H]1CCCC[C@H]1c1cccc(O)c1.Cl` [(-7), (-)-(1R,2S)-3-(2-dimethylaminomethyl-cyclohexyl)-phenol hydrochloride]: the ED50 was 5.9 mg/kg.

Turning to `COc1cccc([C@@]2(O)C[C@H](O)CC[C@@H]2CN(C)C)c1.Cl` [(+17), (+)-(1R,3R,6R)-6dimethylaminomethyl-1-(3-methoxy-phenyl)-cyclohexane-1,3-diol hydrochloride], the ED50 is 3.93 mg/kg.

Take `CN(C)C[C@@H]1CCCC[C@@]1(F)c1cccc(O)c1.Cl` [(-1), (-)-(1S,2S)-3-(2-dimethylaminomethyl-1-fluoro-cyclohexyl)-phenol hydrochloride]: the 50% effective dose (ED50) was found to be 2.28 mg/kg.

Consider `CN(C)C[C@@H]1CCCC[C@@H]1c1cccc(O)c1.Cl` [(+7), (+)-(1S,2R)-3-(2-dimethylaminomethyl-cyclohexyl)-phenol hydrochloride], for which the 50% effective dose (ED50) came out at 1.13 mg/kg.

The assay is the same for the next values; noted with them: Mus musculus, iv, 20 min, read-out: ED50 (tail flick test, analgesia).
For `COc1cccc([C@@]2(O)CCCC[C@@H]2CN(C)C)c1.Cl` (racemic) [Tramadol, (1RS,2RS)-2[(dimethylamino)methyl]-1-(3-methoxyphenyl)cyclohexanol hydrochloride, reference compound], the ED50 is 13.6 mg/kg.

Source of the values: patent publication USRE37355E, “6-dimethylaminomethyl-1-phenyl-cyclohexane compounds as pharmaceutical active ingredients” (priority 1995, dated 2001).
